Measurements published in US11254668B2, “Pyrazolo[1,5-A]pyrazin-4-yl and related derivatives” (Pfizer Inc., priority 2017, dated 2022).
Like-named read-outs stand apart in the source and are kept apart here.

Key:
Type in all cases: biochemical
TYK2 = TYK2 (Homo sapiens (Human), UniProt P29597); assay: JAK Caliper Enzyme Assay at 1 mM ATP, TYK2
Outline: (§1)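 Recombinant human kinase domains phosphorylate a fluorescent synthetic peptide at 1 mM ATP and room temperature, with enzyme level and time tuned to 20–30% conversion before an EDTA stop. Microfluidic mobility-shift separation gives percent product from peak heights. Percent effect against plate controls (DMSO baseline) is plotted versus compound concentration.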

JAK1 = JAK1 (Homo sapiens (Human), UniProt P23458); assay: JAK Caliper Enzyme Assay at 1 mM ATP, JAK1
Outline: (§2)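 Recombinant human kinase domains phosphorylated a fluorescent synthetic peptide at room temperature, with enzyme level and time tuned to 20% to 30% conversion; EDTA stop buffer ended reactions. Mobility-shift separation gave percent product from peak heights, normalised to DMSO and positive controls, and IC50s came from concentration–effect curves.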

JAK2 = JAK2 (Homo sapiens (Human), UniProt O60674); assay: JAK Caliper Enzyme Assay at 1 mM ATP, JAK2
Outline: as §1

JAK3 = JAK3 (Homo sapiens (Human), UniProt P52333); assay: JAK Caliper Enzyme Assay at 1 mM ATP, JAK3
Outline: as §2

Chain of JAK3 (P52333 822-1111): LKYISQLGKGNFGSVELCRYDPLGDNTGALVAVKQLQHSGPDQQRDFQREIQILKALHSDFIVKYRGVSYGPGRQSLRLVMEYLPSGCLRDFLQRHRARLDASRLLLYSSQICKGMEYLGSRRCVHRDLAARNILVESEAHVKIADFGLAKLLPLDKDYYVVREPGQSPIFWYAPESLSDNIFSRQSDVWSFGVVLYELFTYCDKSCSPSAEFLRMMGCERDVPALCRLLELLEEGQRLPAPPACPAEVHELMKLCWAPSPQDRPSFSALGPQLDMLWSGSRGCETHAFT
Chain of JAK2 (O60674 849-1124): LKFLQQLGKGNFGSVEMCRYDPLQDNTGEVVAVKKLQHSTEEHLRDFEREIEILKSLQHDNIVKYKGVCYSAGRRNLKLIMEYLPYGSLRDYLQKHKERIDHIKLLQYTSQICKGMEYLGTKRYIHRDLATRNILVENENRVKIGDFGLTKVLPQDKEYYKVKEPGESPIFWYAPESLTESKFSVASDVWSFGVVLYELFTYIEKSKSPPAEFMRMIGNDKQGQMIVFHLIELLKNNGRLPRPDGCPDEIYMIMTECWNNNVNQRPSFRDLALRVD
Chain of TYK2 (P29597 897-1176): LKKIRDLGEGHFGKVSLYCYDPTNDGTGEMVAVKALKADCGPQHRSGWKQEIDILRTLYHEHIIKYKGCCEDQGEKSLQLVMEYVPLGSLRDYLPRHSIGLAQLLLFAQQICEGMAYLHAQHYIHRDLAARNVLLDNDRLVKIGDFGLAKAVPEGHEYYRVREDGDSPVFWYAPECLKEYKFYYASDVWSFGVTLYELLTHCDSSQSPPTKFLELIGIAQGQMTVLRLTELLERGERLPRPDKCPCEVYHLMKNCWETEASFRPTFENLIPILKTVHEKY
Chain of JAK1 (P23458 875-1153): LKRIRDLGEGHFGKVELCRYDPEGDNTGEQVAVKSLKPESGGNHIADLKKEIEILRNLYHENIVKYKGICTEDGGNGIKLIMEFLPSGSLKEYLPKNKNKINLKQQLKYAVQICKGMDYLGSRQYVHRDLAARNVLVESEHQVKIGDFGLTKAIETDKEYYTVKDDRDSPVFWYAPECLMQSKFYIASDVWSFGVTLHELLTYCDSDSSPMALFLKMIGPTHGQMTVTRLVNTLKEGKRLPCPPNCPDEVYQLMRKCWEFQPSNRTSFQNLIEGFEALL

| Compound | IC50 (TYK2) [nM] | IC50 (JAK1) [nM] | IC50 (JAK2) [nM] | IC50 (JAK3) [nM] | IC50 (TYK2; JAK Caliper enzyme assay) [nM] | IC50 (JAK1; JAK Caliper enzyme assay) [nM] | IC50 (JAK2; JAK Caliper enzyme assay) [nM] | IC50 (JAK3; JAK Caliper enzyme assay) [nM] |
| --- | --- | --- | --- | --- | --- | --- | --- | --- |
| N#CC[C@]1(n2ccc(-c3nc(-c4ccnc(N)c4)cc4ncccc34)n2)C[C@@H](C#N)C1 [Example 198, cis-3-{3-[7-(2-aminopyridin-4-yl)-1,6-naphthyridin-5-yl]-1H-pyrazol-1-yl}-3-(cyanomethyl)cyclobutanecarbonitrile] | 7 | 39 | 32 | 1930 | – | – | – | – |
| Cn1cc(-c2cc(-c3cnn([C@]4(CC#N)C[C@H](C#N)C4)n3)n3ccnc3c2)cn1 [Example 473, cis-3-(cyanomethyl)-3-{4-[7-(1-methyl-1H-pyrazol-4-yl)imidazo[1,2-a]pyridin-5-yl]-2H-1,2,3-triazol-2-yl}cyclobutanecarbonitrile] | – | – | – | – | 90 | 6470 | 1930 | > 10000 |
| C[C@]1(C#N)C[C@@](CC#N)(n2ccc(-c3nc(-c4cn[nH]c4)cc4ncccc34)n2)C1 [Example 84, cis-3-(cyanomethyl)-1-methyl-3-{3-[7-(1H-pyrazol-4-yl)-1,6-naphthyridin-5-yl]-1H-pyrazol-1-yl}cyclobutanecarbonitrile] | 22 | 240 | 174 | > 10000 | – | – | – | – |
| CS(=O)(=O)N1CC(CC#N)(n2ncc(-c3cc(-c4ccc(O)c(F)c4)cc4ncccc34)n2)C1 [Example 444] | – | – | – | – | 77 | 1240 | 1180 | > 10000 |
| Cc1nc(-c2cc(-c3cnn([C@]4(CC#N)C[C@H](C#N)C4)n3)c3cccnc3c2)ccc1O [Example 381, cis-3-(cyanomethyl)-3-{4-[7-(5-hydroxy-6-methylpyridin-2-yl)quinolin-5-yl]-2H-1,2,3-triazol-2-yl}cyclobutanecarbonitrile] | – | – | – | – | 30 | 432 | 138 | > 10000 |
| N#CC[C@]1(n2ncc(-c3cc(-c4cnn(CCO)c4)cc4ncccc34)n2)C[C@@H](C#N)C1 [Example 327, cis-3-(cyanomethyl)-3-(4-{7-[1-(2-hydroxyethyl)-1H-pyrazol-4-yl]quinolin-5-yl}-2H-1,2,3-triazol-2-yl)cyclobutanecarbonitrile] | 20 | 262 | 52 | 3290 | – | – | – | – |
| CS(=O)(=O)c1ccc(-c2cc3ncccc3c(-c3ccn(C4(CC#N)CN(S(C)(=O)=O)C4)n3)n2)cn1 [Example 206, [1-(methylsulfonyl)-3-(3-{7-[6-(methylsulfonyl)pyridin-3-yl]-1,6-naphthyridin-5-yl}-1H-pyrazol-1-yl)azetidin-3-yl]acetonitrile] | 50 | 2530 | 479 | > 10000 | – | – | – | – |
| CNC(=O)C1CC(CC#N)(n2ccc(-c3nc(-c4cc[nH]n4)cc4ncccc34)n2)C1 (stereo not drawn) [Example 26, cis-3-(cyanomethyl)-N-methyl-3-{3-[7-(1H-pyrazol-3-yl)-1,6-naphthyridin-5-yl]-1H-pyrazol-1-yl}cyclobutanecarboxamide] | 1470 | 6070 | 3900 | > 10000 | – | – | – | – |
| N#CC[C@]1(n2ncc(-c3cc(-c4ncc(CO)s4)cc4ncccc34)n2)C[C@H](C#N)C1 [Example 343, trans-3-(cyanomethyl)-3-(4-{7-[5-(hydroxymethyl)-1,3-thiazol-2-yl]quinolin-5-yl}-2H-1,2,3-triazol-2-yl)cyclobutanecarbonitrile] | 65 | 3340 | 660 | > 10000 | – | – | – | – |
| CO[C@H]1C[C@](CC#N)(n2ccc(-c3nc(-c4c[nH]nc4N)cc4ncccc34)n2)C1 [Example 96, (cis-1-{3-[7-(3-amino-1H-pyrazol-4-yl)-1,6-naphthyridin-5-yl]-1H-pyrazol-1-yl}-3-methoxycyclobutyl)acetonitrile] | 31 | 790 | 243 | > 10000 | – | – | – | – |
| CS(=O)(=O)N1CC(CC#N)(n2ncc(-c3cc(-c4ccc(O)cc4)cc4ncccc34)n2)C1 [Example 439, [3-{4-[7-(4-hydroxyphenyl)quinolin-5-yl]-2H-1,2,3-triazol-2-yl}-1-(methylsulfonyl)azetidin-3-yl]acetonitrile] | – | – | – | – | 30 | 1210 | 609 | > 10000 |
| CS(=O)(=O)N1CC(CC#N)(n2ccc(-c3nc(-c4cncc(N)c4)cc4ncccc34)n2)C1 [Example 193] | 147 | 5570 | 1680 | > 10000 | – | – | – | – |
| [3-(4-{7-[1-(oxetan-3-yl)-1H-pyrazol-4-yl]-1,6-naphthyridin-5-yl}-1H-pyrazol-1-yl)-1-(2,2,2-trifluoroethyl)azetidin-3- [Example 10] | 20 | 86 | 10 | 2000 | – | – | – | – |

Continued, values first:

| IC50 (TYK2) [nM] | IC50 (JAK1) [nM] | IC50 (JAK2) [nM] | IC50 (JAK3) [nM] | IC50 (TYK2; JAK Caliper enzyme assay) [nM] | IC50 (JAK1; JAK Caliper enzyme assay) [nM] | IC50 (JAK2; JAK Caliper enzyme assay) [nM] | IC50 (JAK3; JAK Caliper enzyme assay) [nM] | Compound |
| --- | --- | --- | --- | --- | --- | --- | --- | --- |
| 197 | 1530 | 525 | > 10000 | – | – | – | – | CS(=O)(=O)N1CC(CC#N)(n2cc(-c3cc(-c4cn[nH]c4)cc4ncccc34)cn2)C1 [Example 289, [1-(methylsulfonyl)-3-{4-[7-(1H-pyrazol-4-yl)quinolin-5-yl]-1H-pyrazol-1-yl}azetidin-3-yl]acetonitrile] |
| 25 | 293 | 242 | > 10000 | – | – | – | – | N#CC[C@]1(n2ccc(-c3nc(-c4cn[nH]c4)cc4ncccc34)n2)C[C@H](C#N)C1 [Example 77, trans-3-(cyanomethyl)-3-{3-[7-(1H-pyrazol-4-yl)-1,6-naphthyridin-5-yl]-1H-pyrazol-1-yl}cyclobutanecarbonitrile] |
| – | – | – | – | 660 | 7110 | 3050 | > 10000 | N#CC[C@]1(n2ncc(-c3cc(-c4cnccn4)cc4ncccc34)n2)C[C@@H](C#N)C1 [Example 392, cis-3-(cyanomethyl)-3-{4-[7-(pyrazin-2-yl)quinolin-5-yl]-2H-1,2,3-triazol-2-yl}cyclobutanecarbonitrile] |
| 10 | 243 | 20 | 3720 | – | – | – | – | Cn1cc(-c2cc3ncccc3c(-c3ccn([C@]4(CC#N)C[C@@H](C#N)C4)n3)n2)c(N)n1 [Example 139, trans-3-{3-[7-(3-amino-1-methyl-1H-pyrazol-4-yl)-1,6-naphthyridin-5-yl]-1H-pyrazol-1-yl}-3-(cyanomethyl)cyclobutanecarbonitrile] |
| 27 | 198 | 325 | > 10000 | – | – | – | – | CS(=O)(=O)N1CC(CC#N)(n2ccc(-c3nc(-c4ccc(O)c(F)c4)cc4ncccc34)n2)C1 [Example 260, [3-{3-[7-(3-fluoro-4-hydroxyphenyl)-1,6-naphthyridin-5-yl]-1H-pyrazol-1-yl}-1-(methylsulfonyl)azetidin-3-yl]acetonitrile] |
| – | – | – | – | 480 | 693 | 486 | 7280 | Cn1cc(-c2cc(-c3ccn(C4(CC#N)CN(CC(F)(F)F)C4)n3)n3ncnc3c2)cn1 [Example 476, [3-{3-[7-(1-methyl-1H-pyrazol-4-yl)[1,2,4]triazolo[1,5-a]pyridin-5-yl]-1H-pyrazol-1-yl}-1-(2,2,2-trifluoroethyl)azetidin-3-yl]acetonitrile] |
| 287 | > 10000 | 3180 | > 10000 | – | – | – | – | Cn1ncc(-c2cc3ncccc3c(-c3ccn(C4(CC#N)CN(CC(F)(F)F)C4)n3)n2)n1 [Example 154, [3-{3-[7-(2-methyl-2H-1,2,3-triazol-4-yl)-1,6-naphthyridin-5-yl]-1H-pyrazol-1-yl}-1-(2,2,2-trifluoroethyl)azetidin-3-yl]acetonitrile] |
| 36 | 2300 | 788 | > 10000 | – | – | – | – | CO[C@H]1C[C@@](CC#N)(n2ncc(-c3cc(-c4cc[nH]n4)cc4ncccc34)n2)C1 [Example 304, (cis-3-methoxy-1-{4-[7-(1H-pyrazol-3-yl)quinolin-5-yl]-2H-1,2,3-triazol-2-yl}cyclobutyl)acetonitrile] |
| 120 | 3790 | 1390 | > 10000 | – | – | – | – | Cc1cc(-c2nc(-c3cn[nH]c3)cc3ncccc23)nn1C1(CC#N)CN(S(C)(=O)=O)C1 [Example 272, [3-{5-methyl-3-[7-(1H-pyrazol-4-yl)-1,6-naphthyridin-5-yl]-1H-pyrazol-1-yl}-1-(methylsulfonyl)azetidin-3-yl]acetonitrile] |
| – | – | – | – | 909 | > 10000 | 1700 | > 10000 | N#CC[C@]1(n2ncc(-c3cc(-c4cnn5cccnc45)cc4ncccc34)n2)C[C@H](C#N)C1 [Example 420, trans-3-(cyanomethyl)-3-{4-[7-(pyrazolo[1,5-a]pyrimidin-3-yl)quinolin-5-yl]-2H-1,2,3-triazol-2-yl}cyclobutanecarbonitrile] |
| 205 | 2770 | 2080 | > 10000 | – | – | – | – | CC(C)(O)[C@H]1C[C@](CC#N)(n2ccc(-c3nc(-c4cc[nH]n4)cc4ncccc34)n2)C1 [Example 39, [trans-3-(2-hydroxypropan-2-yl)-1-{3-[7-(1H-pyrazol-3-yl)-1,6-naphthyridin-5-yl]-1H-pyrazol-1-yl}cyclobutyl]acetonitrile] |
| 315 | 4590 | 2470 | > 10000 | – | – | – | – | N#CCC1(n2ncc(-c3cc(-c4cc[nH]n4)cc4ncccc34)n2)CN(CC2(F)CC2)C1 [Example 297] |
| 4820 | > 10000 | > 10000 | > 10000 | – | – | – | – | CCN1CC(CC#N)(n2ccc(-c3nc(N4CCCC4)cc4ncccc34)n2)C1 [Example 265, (1-ethyl-3-{3-[7-(pyrrolidin-1-yl)-1,6-naphthyridin-5-yl]-1H-pyrazol-1-yl}azetidin-3-yl)acetonitrile] |
